According to patent US9056099B2, “Compositions and methods for treating viral diseases” (NovaDrug, LLC, priority 2010, dated 2015):

Tested on: HCV (JFH-1) in Huh7-1 cells
Assay: Assay for anti-HCV efficacy: JFH-1 HCV infection of Huh7-1 cultures, intracellular HCV RNA by RT-qPCR
Type: cell-based, Hepatitis C virus
Conditions: % viral titer at 5 μM or 15 μM, HCV-infected Huh7-1 cultures
Source text: In the past, HCV studies involved mainly infected patients and chimpanzees. Recently, a robust HCV infection system was developed with cells derived from the Huh-7 human hepatoma cell line (see, for example, Yu et al., “Development of a cell-based hepatitis C virus infection fluorescent resonance energy transfer assay for high-throughput antiviral compound screening” Antimicrob Agents Chemother. 2009 53:4311-4319 for additional details regarding growing virus stocks, maintenance of the Huh-7 cells, infection parameters, and HCV titers determinations; and Yu & Uprichard “Cell-based hepatitis C virus infection fluorescence resonance energy transfer (FRET) assay for antiviral compound screening” Curr Protoc Microbiol. 2010; Chapter 17: Unit 17.5). Briefly, the assay is based on the unique JFH-1 HCV consensus cDNA derived from an HCV patient. Using reverse genetics, the infectious virus can be rescued from this HCV clone. The recovered viable JFH virus can be passaged serially in Huh-7 cells. For this reason, this system is amenable for testing the activity of potential drugs for their anti-HCV efficacy. The antiviral activity of the compounds described herein is tested in this system.
Initially, 6×10^3 Huh7-1 cells are incubated overnight in each well of collagen-coated BioCoat 96-well plates (BD Biosciences, Bedford, Mass.) in 0.2 mL 10% Medium composed of Dulbecco's modified Eagle's medium supplemented with 10% fetal bovine serum. Subsequently, at 2 day intervals, the cultures are replenished with fresh 0.2 mL 10% Medium. Once the cultures become confluent, they are continually replenished at 2 day intervals with fresh 0.2 mL 10% Medium that also includes 1% dimethyl sulfoxide (DMSO). After 20 days of these replenishments, the Huh7-1 cultures are incubated with fresh 1% Medium (same as 10% Medium except that the serum level is 1%) containing HCV at a multiplicity of infection (MOI) of 0.05 focus forming units (ffu)/cell. The HCV (JFH-1wt Huh7) stock titer is 1.5×10^5 ffu/mL. The next day (day 1 post-infection) and 2 days later (day 3 post-infection) the media are replenished with fresh 1% Medium containing the test compounds dissolved in DMSO. On the 5th day of treatment with the compounds, cell lysates are collected for RNA isolation and Real Time-quantitative Reverse Transcription Polymerase Chain Reaction (RT-qPCR) and culture media are collected for cytotoxicity analysis.
Total RNA is isolated from cells by the guanidine thiocyanate method using standard protocols. One μg RNA is used for cDNA synthesis using TaqMan reverse transcription reagents (Applied Biosystems, Foster City, Calif.) followed by real-time PCR using an Applied Biosystems 7300 real-time thermocycler. Illustrative thermal cycling consists of initial denaturation of 10 min at 95° C. followed by 40 cycles of denaturation (15 s at 95° C.) and annealing/extension (1 m at 60° C.). HCV and human glyceraldehyde-3-phosphate dehydrogenase (GAPDH) RNA levels are determined relative to a standard curve of serial dilutions of plasmid containing JFH-1 HCV or GAPDH cDNA. The PCR primers used to detect GAPDH and HCV are illustratively: GAPDH (NMX002046) 5′-GAAGGTGAAGGTCGGAGTC-3′ (SEQ ID NO: 5) (sense) and 5′-[…]-3′ (SEQ ID NO: 6) (anti-sense) JFH-1 HCV (AB047639) 5′-TCTGCGGAACCGGTGAGTA-3′ (SEQ ID NO: 7) (sense) and 5′-TCAGGCAGTACCACAAGGC-3′ (SEQ ID NO: 8) (anti-sense).
FIGS. 1-7 illustrate the intracellular HCV RNA levels when cultures are incubated with the selected test compounds at the doses shown. When HCV RNA levels are compared among the samples, the data may indicate that the compounds cause a dose dependent decrease in HCV RNA levels relative to the mock-treated (no compound added) HCV infected control.

Row | Compound | Activity (viral titer) (Compound Example 2 series) | Activity (viral titer) (Compound Example 1 series)
1 | O=C(c1ccncc1)N1C[C@@H](c2ccc(F)cc2)[C@@H]2CN(Cc3ccc(F)cc3)CC[C@@H]21 | − (>60% viral titer at 15 μM (highest concentration tested)) | 
2 | COc1ccc(CN2CC[C@@H]3[C@H](C2)[C@@H](c2ccc(F)cc2)CN3C(=O)c2ccccc2)cc1 |  | ++ (≦60% viral titer at 5 μM)
3 | O=C(c1ccncc1)N1CC(c2ccc(F)cc2)C2CN(Cc3ccccc3F)CCC21 (stereo not drawn) | − (>60% viral titer at 15 μM (highest concentration tested)) | 
4 | Cc1ccccc1CN1CCC2C(C1)C(c1ccc(F)cc1)CN2C(=O)c1ccncc1 (stereo not drawn) | − (>60% viral titer at 15 μM (highest concentration tested)) | 
5 | O=C(c1cccs1)N1C[C@H](c2ccc(F)cc2)[C@H]2CN(Cc3ccccn3)CC[C@H]21 |  | − (>60% viral titer at 15 μM (highest concentration tested))
6 | O=C(c1ccccc1F)N1C[C@H](c2ccsc2)[C@H]2CN(Cc3ccc(F)cc3)CC[C@H]21 |  | +++ (≦30% viral titer at 5 μM)
7 | COc1cccc([C@H]2CN(C(=O)c3ccccc3)[C@@H]3CCN(Cc4ccccc4F)C[C@H]23)c1 |  | + (≦60% viral titer at 15 μM)
8 | COc1cccc([C@H]2CN(C(=O)c3ccccc3)[C@@H]3CCN(Cc4cccc(F)c4)C[C@H]23)c1 |  | − (>60% viral titer at 15 μM (highest concentration tested))
9 | CC(C)c1ccc(CN2CC[C@H]3[C@@H](C2)[C@H](c2ccsc2)CN3C(=O)c2ccncc2)cc1 | − (>60% viral titer at 15 μM (highest concentration tested)) | 
10 | O=C(c1ccccc1)N1CC(c2ccsc2)C2CN(Cc3ccccc3)CCC21 (stereo not drawn) | ++ (≦60% viral titer at 5 μM) | 
11 | Cc1nn(C)cc1CN1CCC2C(C1)C(c1ccc(F)cc1)CN2C(=O)c1ccccc1 (stereo not drawn) | + (≦60% viral titer at 15 μM) | 
12 | O=C(c1ccncc1)N1CC(c2ccc(F)cc2)C2CN(Cc3cccc(F)c3)CCC21 (stereo not drawn) | − (>60% viral titer at 15 μM (highest concentration tested)) | 
13 | COc1ccc(CN2CCC3C(C2)C(c2ccc(F)cc2)CN3C(=O)c2ccccn2)cc1 (stereo not drawn) |  | − (>60% viral titer at 15 μM (highest concentration tested))
14 | O=C(c1ccccc1F)N1CC(c2ccsc2)C2CN(Cc3ccccc3F)CCC21 (stereo not drawn) |  | − (>60% viral titer at 15 μM (highest concentration tested))
15 | Cc1ccccc1CN1CC[C@H]2[C@@H](C1)[C@H](c1ccsc1)CN2C(=O)c1ccc(F)cc1 | − (>60% viral titer at 15 μM (highest concentration tested)) | 
16 | COc1cccc([C@H]2CN(C(=O)c3ccccc3)[C@@H]3CCN(Cc4cccs4)C[C@H]23)c1 |  | − (>60% viral titer at 15 μM (highest concentration tested))
17 | O=C(c1ccc(F)cc1)N1CC(c2ccsc2)C2CN(Cc3ccccc3F)CCC21 (stereo not drawn) | − (>60% viral titer at 15 μM (highest concentration tested)) | 

Row | Compound | Activity (viral titer) (Compound Example 2 series) | Activity (viral titer) (Compound Example 1 series)
18 | O=C(c1ccccc1)N1C[C@@H](c2ccsc2)[C@@H]2CN(Cc3cccc(F)c3)CC[C@@H]21 | − (>60% viral titer at 15 μM (highest concentration tested)) | 
19 | O=C(c1ccccc1)N1C[C@@H](c2ccsc2)[C@@H]2CN(Cc3ccc(Cl)cc3)CC[C@@H]21 | ++ (≦60% viral titer at 5 μM) | 
20 | O=C(c1ccccc1F)N1CC(c2ccsc2)C2CN(Cc3ccccc3)CCC21 (stereo not drawn) |  | − (>60% viral titer at 15 μM (highest concentration tested))
21 | O=C(c1ccccc1)N1CC(c2ccc(F)cc2)C2CN(Cc3ccccc3)CCC21 (stereo not drawn) |  | ++ (≦60% viral titer at 5 μM)
22 | O=C(c1cccnc1)N1C[C@H](c2ccc(F)cc2)[C@H]2CN(Cc3ccc(Cl)cc3)CC[C@H]21 |  | +++ (≦30% viral titer at 5 μM)
23 | O=C(c1ccccc1F)N1CC(c2ccsc2)C2CN(Cc3ccncc3)CCC21 (stereo not drawn) |  | − (>60% viral titer at 15 μM (highest concentration tested))
24 | Cc1cccc(CN2CCC3C(C2)C(c2ccc(F)cc2)CN3C(=O)c2ccccn2)c1 (stereo not drawn) |  | − (>60% viral titer at 15 μM (highest concentration tested))
25 | O=C(c1ccccc1)N1CC(c2ccsc2)C2CN(Cc3ccc(F)c(F)c3)CCC21 (stereo not drawn) | ++ (≦60% viral titer at 5 μM) | 
26 | O=C(c1cccs1)N1C[C@H](c2ccc(F)cc2)[C@H]2CN(Cc3ccccc3)CC[C@H]21 |  | − (>60% viral titer at 15 μM (highest concentration tested))
27 | O=C(c1ccncc1)N1CC(c2ccsc2)C2CN(Cc3ccc(F)cc3)CCC21 (stereo not drawn) | + (≦60% viral titer at 15 μM) | 
28 | O=C(c1cccnc1)N1CC(c2ccc(F)cc2)C2CN(Cc3cccc(F)c3)CCC21 (stereo not drawn) | − (>60% viral titer at 15 μM (highest concentration tested)) | 
29 | O=C(c1ccccn1)N1CC(c2ccc(F)cc2)C2CN(Cc3ccccn3)CCC21 (stereo not drawn) |  | − (>60% viral titer at 15 μM (highest concentration tested))
30 | O=C(c1ccc(F)cc1)N1C[C@@H](c2ccsc2)[C@@H]2CN(Cc3ccncc3)CC[C@@H]21 | − (>60% viral titer at 15 μM (highest concentration tested)) | 
31 | O=C(c1cccnc1)N1C[C@H](c2ccc(F)cc2)[C@H]2CN(Cc3ccccc3)CC[C@H]21 |  | ++ (≦60% viral titer at 5 μM)
32 | COc1ccc(C2CN(C(=O)c3ccccc3)C3CCN(Cc4ccc(F)cc4)CC23)cc1 (stereo not drawn) | +++ (≦30% viral titer at 5 μM) | 
33 | O=C(c1ccc(F)cc1)N1C[C@@H](c2ccsc2)[C@@H]2CN(Cc3cccc(F)c3)CC[C@@H]21 | − (>60% viral titer at 15 μM (highest concentration tested)) | 
